Test results as given in ChEMBL document CHEMBL3045506, “Spore Germination Self-Inhibitors from Plant Pathogenic Fungi” (1997).
≈ marks a conversion by molar mass, not a printed value.

Experiments:
Type in all cases: functional
[1] = test system: Colletotrichum gloeosporioides; assay: Antifungal activity against Colletotrichum gloeosporioides f. sp. jussiaea assessed as conidial germination at 3 ppm after 48 hr by microscopic analysis
[2] = test system: Colletotrichum gloeosporioides; assay: Antifungal activity against Colletotrichum gloeosporioides f. sp. jussiaea assessed as conidial germination at 10 ppm after 48 hr by microscopic analysis
[3] = test system: Colletotrichum gloeosporioides; assay: Antifungal activity against Colletotrichum gloeosporioides f. sp. jussiaea assessed as conidial germination at 30 ppm after 48 hr by microscopic analysis
[4] = test system: Colletotrichum gloeosporioides; assay: Antifungal activity against Colletotrichum gloeosporioides f. sp. jussiaea assessed as conidial germination at 100 ppm after 48 hr by microscopic analysis
[5] = test system: Puccinia graminis f. sp. tritici; assay: Antifungal activity against Puccinia graminis f. sp. tritici assessed as inhibition of uredospore germination after 48 hr by microscope-slide assay
Puccinia coronata = assay: Antifungal activity against Puccinia coronata assessed as inhibition of uredospore germination after 48 hr by microscope-slide assay

Row | Compound | Activity [1] | Activity [2] | Activity [3] | Activity [4] | ED50 [5] | ED50 (Puccinia coronata)
1 | C/C=C1\C(=O)Nc2ccccc21 | 68% | 0% | 0% | 0% |  | 
2 | COC(=O)/C=C\c1ccc(OC)c(OC)c1 [METHYL CIS-3,4-DIMETHOXYCINNAMATE] |  |  |  |  | 3.68 ng/mL (≈ 16.6 nM) | 0.013 ng/mL (≈ 0.0585 nM)
3 | CCCCC[C@H]1CCCCC[C@H]2CC(=O)[C@@H](CCC(=O)O1)O2 [(+)-GLOEOSPORONE] |  |  | 81% | 44% |  | 
4 | COC(=O)C(=Cc1ccc(O)c(OC)c1)C(=O)OC |  |  |  |  | 0.27 ng/mL (≈ 1.01 nM) | 6.8 ng/mL (≈ 25.5 nM)
5 | CCCCC[C@@H]1CCCCC[C@@H]2CC(=O)[C@H](CCC(=O)O1)O2.NN [13-EPIGLOEOSPORONE] |  |  | 81% | 48% |  | 
6 | CCCCC[C@H]1CCCCC[C@H]2CC(=O)[C@@H](CCC(=O)O1)O2.NN [7-EPIGLOEOSPORONE] |  |  | 82% | 45% |  | 
7 | COC(=O)/C=C\c1ccc(O)c(OC)c1 [METHYL CIS-FERULATE] |  |  |  |  | 0.18 ng/mL (≈ 0.864 nM) | 5.57 ng/mL (≈ 26.8 nM)
8 | C/C=C1/C(=O)Nc2ccccc21 | 40% | 0% | 0% | 0% |  | 
9 | CCCCC[C@@H]1CCCCC[C@@H]2CC(=O)[C@H](CCC(=O)O1)O2 [(-)-GLOEOSPORONE] |  |  | 82% | 49% |  | 
10 | COC(=O)C(=Cc1ccc(OC)c(OC)c1)C(=O)OC [METHYL 3,4-DIMETHOXYBENZALMALONATE] |  |  |  |  | 4.16 ng/mL (≈ 14.8 nM) | 0.025 ng/mL (≈ 0.0892 nM)
